In patent US7589075B2, “Use of an adenosine A3 receptor agonist for inhibition of viral replication” (Can-Fite Biopharma Ltd., priority 2001, dated 2009):

Tests used:
Type in all cases: cell-based
[1] = tested on: HIV-1 isolate JR-FL in primary human fetal astrocytes; experiment: p24 ELISA, HIV replication in JR-FL infected astroglial cells; conditions: for p24 pg/mL Day 5: Astroglia/JR-FL, 0.01 (μM) every 24 hours, culture medium 5 days after HIV infection, HIV control 22.83; for amount of p24 protein in culture medium from HIV infected cells in comparison to untreated HIV controls: summary statement for Tables 1 to 3 (astroglia and microglia, JR-FL and SF162)
Procedure: (§1) Purified primary human fetal astrocytes and microgial cells were prepared from 16 to 20 week old human fetal brain tissue by a modified procedure based on the methods of Cole and de Vellis^11, and Yong and Ante^13. Brain tissue was washed in ice-cold Hank's Balanced Salt Solution (HBSS) containing the antibiotics gentamycin and amphotericin B. Blood vessels and meninges were removed and the tissue was minced into small pieces. After mincing, the tissue was enzymatically dissociated by incubation in 0.05% trypsin and mechanically disrupted by passing several times over a 75 μm nylon mesh filter. The resulting single cell suspension was washed, pelleted and plated at a density of 2-10×10^6 cells per 162 cm^2 flask in DMEM:F12 containing 10% fetal calf serum, insulin, gentamycin, and L-glutamine. After 7-10 days of growth, microglial cells were isolated by placement on rotary shaker at 200 rpm in a 37° C. incubator overnight. The non-adherent cells were removed and allowed to attach to a new flask for 1 to 3 h. Following attachment, the cells were washed and refed with media containing 10% fetal calf serum, insulin, gentamycin, L-glutamine, and NI supplement. Astrocytes were subcultured from adherent cells in media containing 15% fetal calf serum, insulin, gentamycin, and L-glutamine and contaminating microglia were removed by repeated rotary shaking. Cultured astrocytic and microglial cells were plated at a density of 2.5×10^5 per well into 6 well plates for subsequent infection.
(§2) Brain derived primary HIV-1 isolates SF162 and JR-FL were cultured in human peripheral blood mononuclear cells (PBMC) essentially as described by Gartner and Popovic^12. PBMC were isolated from human buffy coat by fico gradient and plated at a density of 2.5×10^6 per ml in RPMI containing 10% fet calf serum and gentamycin. Cells were stimulated by the addition of 5 ug/ml phytohemagglutinin (PHA) for 48 h. After stimulation, cells were infected will either SF162 or JR-FL and cultured for 7 to 10 days until high titres of HIV-1 we detected in the supernatant by p24 ELISA assay. When viral production was optimal, the cells were pelleted, the supernatant containing HIV-1 was aliquoted and stored at −70° C. until use. P24 ELISA assay was performed on an aliquoted stock to determine the viral titre.
2.5×10^5 microglial or astrocytic cells were plated per well into 6-we plates. The next day, cells were washed and refed with fresh medium. 2×10^4 p2units of either SF 162 or JR-FL virus was added per well in a total of 1 ml of vir inoculum. In control experiments, the virus was not added. Cells were incubated with virus overnight at 37° C., washed extensively with PBS, and refed with […] fresh medium. Cultures were treated with IB-MECA or CI-IB-MECA at concentration of 0.01 μM every 24 hours. […]

[2] = tested on: HIV-1 isolate SF162 in primary human fetal astrocytes; experiment: p24 ELISA, HIV replication in SF162 infected astroglia; conditions: Astroglia/SF-162; 0.01 (μM) every 24 hours; culture medium 5 days after infection; HIV control 313.38
Procedure: as §1, with “Following attachment, the cells were washed and refed with media containing 10% fetal calf serum, insulin, gentamycin, L-glutamine, and NI supplement. Astrocytes were subcultured from adherent cells in media containing 15% fetal calf serum, insulin, gentamycin, and L-glutamine and contaminating microglia were removed by repeated rotary shaking. Cultured astrocytic and microglial cells were plated at a density of 2.5×10^5 per well into 6 well plates for subsequent infection.” left out
Brain derived primary HIV-1 isolates SF162 and JR-FL were cultured in human peripheral blood mononuclear cells (PBMC) essentially as described by Gartner and Popovic^12. […] After stimulation, cells were infected will either SF162 or JR-FL and cultured for 7 to 10 days until high titres of HIV-1 we detected in the supernatant by p24 ELISA assay. […]

[3] = tested on: HIV-1 isolate SF162 in primary human fetal microglia; experiment: p24 ELISA, HIV replication in SF162 infected microglia; conditions: Microglia/SF; for p24 pg/mL Day 5 after infection: HIV control 267.99; for p24 pg/mL Day 10 after infection: HIV control 209.18
Procedure: as §1, §2
2.5×10^5 microglial or astrocytic cells were plated per well into 6-we plates. The next day, cells were washed and refed with fresh medium. 2×10^4 p2units of either SF 162 or JR-FL virus was added per well in a total of 1 ml of vir inoculum. In control experiments, the virus was not added. Cells were incubated with virus overnight at 37° C., washed extensively with PBS, and refed with […] fresh medium. […] 500 μl of medium were removed at the indicated times following infection and stored at −70° C. for later analysis. Each time medium was removed, a volume amount of fresh medium was added. In control experiments IB-MECA and Cl-IB-MECA were omitted.
ELISA assay to detect the HIV-1 viral core protein, p24, was performed of 50 μl of the collected supernatant utilizing the commercially available p24 ELISA Kit (NEN/Dupont) according to the manufacturer's instructions.

| Compound | p24 pg/mL Day 5 [1] | amount of p24 protein in culture medium from HIV infected cells in comparison to untreated HIV controls [1] | p24 pg/mL Day 5 [2] | p24 pg/mL Day 5 after infection ([3]; 0.01 (μM)) | p24 pg/mL Day 10 after infection ([3]; 0.01 (μM)) | p24 pg/mL Day 5 after infection ([3]; 0.1) | p24 pg/mL Day 10 after infection ([3]; 0.1) |
| --- | --- | --- | --- | --- | --- | --- | --- |
| CNC(=O)[C@H]1O[C@@H](n2cnc3c(NCc4cccc(I)c4)ncnc32)[C@H](O)[C@@H]1O [IB-MECA, 1-deoxy-1-{6-[({3-iodophenyl}methyl)amino]-9H-purine-9-yl}-N-methyl-β-D-ribofuranuron-amide] | 3.02 pg/mL | significantly reduced | 137.58 pg/mL | 81.33 pg/mL | 62.79 pg/mL | 82.29 pg/mL | 54.80 pg/mL |
| CNC(=O)[C@H]1O[C@@H](n2cnc3c(NCc4cccc(I)c4)nc(Cl)nc32)[C@H](O)[C@@H]1O [Cl-IB-MECA] | 8.45 pg/mL | significantly reduced | 288.77 pg/mL | 127.03 pg/mL | 111.05 pg/mL | 10.81 pg/mL | 80.37 pg/mL |
